# ChEMBL document CHEMBL1201862, “PubChem BioAssay data set” (2004)
#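 48-hour exposure; five concentrations; linearly interpolated endpoints. At the GI50, growth is halved.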 Calls of active or inactive are those of the source. Rule as the data show it: active = GI50 up to about 1.1 µM and inactive = higher.
# What was measured:
# Assay in all cases: growth of human tumour cells (NCI), 48 h
# [1] = test system: 786-0
# [2] = test system: A498
# [3] = test system: ACHN
# [4] = test system: COLO 205
# [5] = test system: DU-145
# [6] = test system: EKVX
# [7] = test system: HCC 2998
# [8] = test system: HCT-116
# [9] = test system: HL-60
# [10] = test system: HOP-62
# [11] = test system: MDA-MB-435
# [12] = test system: MOLT-4
# [13] = test system: OVCAR-3
# [14] = test system: OVCAR-5
# [15] = test system: RPMI-8226
# [16] = test system: SF-268
# [17] = test system: SF-539
# [18] = test system: SNB-19
# [19] = test system: SNB-75
# [20] = test system: SW-620
SMILES,GI50 [1],GI50 [2],GI50 [3],GI50 [4],GI50 [5],GI50 [6],GI50 [7],GI50 [8],GI50 [9],GI50 [10],GI50 [11],GI50 [12],GI50 [13],GI50 [14],GI50 [15],GI50 [16],GI50 [17],GI50 [18],GI50 [19],GI50 [20]
O=C1OCC2=C1C(c1ccc(Cl)cc1)c1cc3c(cc1O2)OCO3 (stereo not given),4.65 µM (inactive),8.24 µM (inactive),6.21 µM (inactive),5.55 µM (inactive),4.15 µM (inactive),21 µM (inactive),4.1 µM (inactive),3 µM (inactive),2.21 µM (inactive),3.4 µM (inactive),0.778 µM (active),2.74 µM (inactive),3.72 µM (inactive),> 23.9 µM (inactive),3.46 µM (inactive),7.43 µM (inactive),2.69 µM (inactive),6.97 µM (inactive),2.49 µM (inactive),2.88 µM (inactive)
COc1cccc(N(CN2CC=CC2=O)C(C)=O)c1,> 100 µM (inactive),> 100 µM (inactive),> 100 µM (inactive),> 100 µM (inactive),> 100 µM (inactive),> 100 µM (inactive),> 100 µM (inactive),> 100 µM (inactive),> 100 µM (inactive),> 100 µM (inactive),> 100 µM (inactive),> 100 µM (inactive),> 100 µM (inactive),> 100 µM (inactive),> 100 µM (inactive),> 100 µM (inactive),> 100 µM (inactive),> 100 µM (inactive),> 100 µM (inactive),> 100 µM (inactive)
COc1cc2c(c3c1c(=O)c1ccccc1n3C)C=CC1(CCCCC1)O2,1.04 µM (active),5.96 µM (inactive),3.13 µM (inactive),4.34 µM (inactive),> 9.1 µM (inactive),> 7.94 µM (inactive),4.59 µM (inactive),2.88 µM (inactive),3.88 µM (inactive),2.3 µM (inactive),2.38 µM (inactive),3.11 µM (inactive),3.53 µM (inactive),5.73 µM (inactive),0.455 µM (active),4.48 µM (inactive),1.57 µM (inactive),> 7.18 µM (inactive),1.29 µM (inactive),6.92 µM (inactive)
CC(=O)OCC1OC(n2cnc3nc(Br)[nH]c(=O)c32)C(OC(C)=O)C1OC(C)=O (stereo not given),> 100 µM (inactive),> 100 µM (inactive),> 100 µM (inactive),> 100 µM (inactive),> 100 µM (inactive),> 100 µM (inactive),> 100 µM (inactive),> 100 µM (inactive),> 100 µM (inactive),> 100 µM (inactive),> 100 µM (inactive),> 100 µM (inactive),> 100 µM (inactive),> 100 µM (inactive),> 100 µM (inactive),> 100 µM (inactive),> 100 µM (inactive),> 100 µM (inactive),70.3 µM (inactive),> 100 µM (inactive)
CCOC(=O)Cn1c(=O)c2cc(-c3ccccc3)cc3c(Cl)nc4c(OC)c(OC)cc1c4c32,14.8 µM (inactive),17 µM (inactive),19.9 µM (inactive),50.6 µM (inactive),21.4 µM (inactive),12.4 µM (inactive),16.7 µM (inactive),13.9 µM (inactive),4.89 µM (inactive),28.8 µM (inactive),17.4 µM (inactive),3.1 µM (inactive),20.9 µM (inactive),> 100 µM (inactive),4.91 µM (inactive),9.93 µM (inactive),87.5 µM (inactive),19 µM (inactive),15.3 µM (inactive),17.7 µM (inactive)
C=C1CC[C@@H](CCC2CCC3(OC2)O[C@]2(O)CC[C@@]3(C)OC2(C)C)C(C)(C)[C@H]1C/C=C1\CCOC1=O (stereo not given in full),11.8 µM (inactive),13.3 µM (inactive),10.7 µM (inactive),16.3 µM (inactive),12.5 µM (inactive),1.11 µM (active),10.9 µM (inactive),0.354 µM (active),1.36 µM (inactive),32.1 µM (inactive),14.3 µM (inactive),1.97 µM (inactive),15 µM (inactive),> 56.1 µM (inactive),1.9 µM (inactive),27.2 µM (inactive),5.3 µM (inactive),51.5 µM (inactive),19.6 µM (inactive),33.3 µM (inactive)
COc1cc(/C=C2\N=C(c3ccccc3)N(/N=C/c3cc4cc(C)ccc4nc3Cl)C2=O)ccc1O,37.6 µM (inactive),16.6 µM (inactive),36.6 µM (inactive),37.2 µM (inactive),65.6 µM (inactive),37.2 µM (inactive),35.5 µM (inactive),20.4 µM (inactive),24.9 µM (inactive),49.3 µM (inactive),17.3 µM (inactive),23.4 µM (inactive),38.9 µM (inactive),> 100 µM (inactive),31.6 µM (inactive),39.2 µM (inactive),35.2 µM (inactive),67.8 µM (inactive),32.7 µM (inactive),39.2 µM (inactive)
COc1ccccc1/C=C\c1cnnc2ccccc12,> 10 µM (inactive),> 10 µM (inactive),> 10 µM (inactive),> 10 µM (inactive),> 10 µM (inactive),8.79 µM (inactive),> 10 µM (inactive),5.77 µM (inactive),> 10 µM (inactive),> 10 µM (inactive),3.49 µM (inactive),6.24 µM (inactive),> 10 µM (inactive),> 10 µM (inactive),> 10 µM (inactive),> 10 µM (inactive),> 10 µM (inactive),> 10 µM (inactive),9.02 µM (inactive),> 10 µM (inactive)
CCOC(=O)c1nnc2c(C(=O)OCC)c3ccccc3n2c1N,67 µM (inactive),4.85 µM (inactive),7.19 µM (inactive),10.2 µM (inactive),37.4 µM (inactive),25.8 µM (inactive),34 µM (inactive),29.3 µM (inactive),2.15 µM (inactive),68.9 µM (inactive),5.05 µM (inactive),4.41 µM (inactive),4.46 µM (inactive),> 100 µM (inactive),1.54 µM (inactive),19.3 µM (inactive),5.66 µM (inactive),4.93 µM (inactive),11 µM (inactive),8.26 µM (inactive)
CCSCCC(N)C(=O)O (stereo not given),> 100 µM (inactive),> 100 µM (inactive),> 100 µM (inactive),> 100 µM (inactive),> 100 µM (inactive),> 100 µM (inactive),> 100 µM (inactive),> 100 µM (inactive),> 100 µM (inactive),> 100 µM (inactive),> 100 µM (inactive),> 100 µM (inactive),> 100 µM (inactive),> 100 µM (inactive),> 100 µM (inactive),> 100 µM (inactive),> 100 µM (inactive),> 100 µM (inactive),> 100 µM (inactive),> 100 µM (inactive)
CC(=NNC(=S)Nc1cccc(C)c1)c1cccc(C(C)=NNC(=S)Nc2cccc(C)c2)n1,8.18 µM (inactive),21.9 µM (inactive),7.24 µM (inactive),8 µM (inactive),> 100 µM (inactive),26.1 µM (inactive),43.3 µM (inactive),12.2 µM (inactive),17.3 µM (inactive),17 µM (inactive),22.4 µM (inactive),15 µM (inactive),3.39 µM (inactive),34.8 µM (inactive),> 100 µM (inactive),59.2 µM (inactive),14.6 µM (inactive),30.5 µM (inactive),17.5 µM (inactive),19 µM (inactive)
COc1cc2c(cc1-c1coc3cc(O)ccc3c1=O)OCO2 [CUNEATIN],15.7 µM (inactive),31 µM (inactive),20.1 µM (inactive),> 100 µM (inactive),39.6 µM (inactive),34.4 µM (inactive),39.7 µM (inactive),18.7 µM (inactive),> 100 µM (inactive),16.4 µM (inactive),> 100 µM (inactive),> 100 µM (inactive),32.6 µM (inactive),40.2 µM (inactive),26.5 µM (inactive),19.3 µM (inactive),23.4 µM (inactive),19.5 µM (inactive),20.5 µM (inactive),32.8 µM (inactive)
